The target of one data set is T1, hA1AR (Homo sapiens, UniProt P30542).
T1 sequence (P30542 1-326): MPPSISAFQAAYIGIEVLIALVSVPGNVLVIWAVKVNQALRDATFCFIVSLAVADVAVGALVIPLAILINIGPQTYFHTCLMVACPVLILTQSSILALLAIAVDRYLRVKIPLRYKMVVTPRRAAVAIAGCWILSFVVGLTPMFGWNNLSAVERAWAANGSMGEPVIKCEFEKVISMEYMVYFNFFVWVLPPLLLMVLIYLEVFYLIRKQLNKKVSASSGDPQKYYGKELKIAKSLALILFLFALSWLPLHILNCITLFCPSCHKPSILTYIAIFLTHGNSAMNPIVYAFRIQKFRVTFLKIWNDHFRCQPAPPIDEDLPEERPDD
Nature of the data set: Competitive binding assay, hA1AR membranes, [3H]DPCPX. To be noted: for Ki: read-out: Ki hA1AR, [3H]DPCPX […], DMSO up to 10%, n = 3–5 in triplicate.

Another data set has as its target hA2AAR (Homo sapiens, UniProt P29274). Put plainly: Competitive binding assay, hA2AAR membranes, [3H]CGS21680. To be noted: read-out: Ki hA2AAR; [3H]CGS21680 50 nM; DMSO up to 10%; n = 3–5 in triplicate.
The next data set deals with T2, hA3AR (Homo sapiens, UniProt P0DMS8).
T2 sequence (P0DMS8 1-318): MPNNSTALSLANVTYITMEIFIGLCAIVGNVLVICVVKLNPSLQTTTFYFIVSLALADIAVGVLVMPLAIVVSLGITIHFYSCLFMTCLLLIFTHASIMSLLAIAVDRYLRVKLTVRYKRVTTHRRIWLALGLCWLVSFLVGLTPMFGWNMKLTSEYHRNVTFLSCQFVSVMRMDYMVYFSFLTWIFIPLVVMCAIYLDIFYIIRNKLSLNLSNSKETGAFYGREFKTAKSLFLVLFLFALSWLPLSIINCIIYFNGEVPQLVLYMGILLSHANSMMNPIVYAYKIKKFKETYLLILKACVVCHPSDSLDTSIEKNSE
Put plainly: Competitive binding assay, hA3AR membranes, [125I]AB-MECA. To be noted: read-out: Ki hA3AR, [125I]AB-MECA 0.4 nM, DMSO ≤1%.

Data set [1] concerns HT-29 cells. Also on record: method as in PMID 23454010. The following applies: 1 µM, A3AR-dependent; cited from earlier work.
A further data set deals with HCT-116 cells. Also on record: method as in PMID 23454010. The following applies: A3AR dependent; cited from earlier work.
For data set [2], the system named is colorectal carcinoma tissue slices. Nature of the data set: Autoradiography of human colorectal carcinoma versus healthy colon tissue slices. The data set is classed as binding. The following applies: in 5 of 7 regions, two CRC patients, P < 0.05. The procedure: Colorectal carcinoma tissue and adjacent healthy colon tissue were obtained directly after tumorectomy from two patients after full informed consent and quick-frozen in 2-methylbutane (−40°C). Tissue was sliced into 16 μm slices using a microcryotome (Thermo Scientific Microm HM 560) and stored at −80°C until usage. Depending on the sample size, 3 to 4 different regions were defined and analyzed by means of autoradiography and immunohistochemistry.
Tissue slices were thawed and reconstituted in assay buffer (50 mM Tris-HCl pH 7.4, 100 mM NaCl, 1 mM EDTA, 1% BSA, 1 unit adenosine deaminase/100 mL) for 30 min at RT. Radiosynthesis of [^18F]FE@SUPPY was performed as previously described and the product was physiologically formulated (EtOH/0.9% saline 10/90). Tissue slices were incubated with 50 kBq [^18F]FE@SUPPY (40–200 GBq/μmol) in 100 μL assay buffer for 1 h at RT. Slices were thoroughly washed with ice-cold wash buffer (50 mM Tris-HCl pH 7.4), dried, and exposed to a phosphor screen overnight. The readout of the phosphor storage screen was performed on a Cyclone Phosphor Imager (Perkin Elmer), and data analysis was performed using OptiQuant® Software as previously described. […] Differences among groups (colorectal cancer versus healthy colon) were analyzed using a two-tailed, unpaired Student's t-test with Welch's correction.

The nature of data set [3]: In vitro stability in mouse plasma. The data set is classed as in vitro ADME. The following applies: 120 min incubation at 37°C. The procedure:
(§1) Stability of [^18F]FE@SUPPY was tested against mouse liver microsomes, mouse S9 fraction, and mouse plasma (BD Sciences). Amount of intact tracer (%) was determined after 5, 10, 20, 40, 60, and 120 min using an Agilent series 1100/1200 HPLC system connected to a radioactivity detector (Raytest, Ramona Star) (n = 2 in triplicate). The assay was conducted as previously described for respective rat and human enzymes.

Data set [4] is described as follows: In vitro stability against mouse S9 fraction. Format: in vitro ADME. The following applies: mouse liver homogenates (S9 fraction), 120 min. The procedure:
as §1

The nature of data set [5]: In vitro stability against mouse liver microsomes. The data set is classed as in vitro ADME. To be noted: purified mouse liver microsomes, 120 min. As for the experimental part:
as §1
On the technique in general: Microsomes from liver hold many membrane-bound enzymes, among them those of drug oxidation.

The nature of data set [6]: Ex vivo blood stability in BALB/c mice. To be noted: 70 min after retroorbital injection. As for the experimental part:
Radiosynthesis was performed as described elsewhere and the product was processed as follows: ethanol was totally evaporated and the dry product was again physiologically formulated in 1.5–2 mL Tween-20/EtOH/0.9% saline 1/9/90 to obtain activity concentrations of approximately 1 GBq/mL. Healthy BALB/c mice were injected with 18 ± 2 MBq (molar activity = 70–200 GBq/μmol) retroorbitally and sacrificed after 5, 10, 20, 40, and 70 min (n = 3 for each time point). Blood samples were collected and immediately precipitated using acetonitrile/methanol (10 : 1) and centrifuged (12,000 rpm, 5 min, 4°C). The obtained supernatants were subjected to radio-HPLC as previously described.

Data set [7] in a line: Ex vivo biodistribution in BALB/c mice. To be noted: 70 min after tracer application, n = 3. The procedure:
Ex vivo biodistribution of [^18F]FE@SUPPY was assessed 70 min after tracer application in BALB/c mice. Radioactivity was determined using a gamma counter (2480 Wizard^2, PerkinElmer), organs were wet-weighted, and percentage of injected dose per gram of organ was calculated (%ID/g).

A further data set has as its system HT-29 xenografts. Put plainly: µPET imaging of HT-29 / CHO-K1 xenograft-bearing CB17-SCID mice. The data set is classed as in vivo. The following applies: µPET 60 min, baseline. As for the experimental part: After 10 to 14 days upon arrival, CB17-SCID mice were injected subcutaneously with 2 × 10^6 HT-29 cells into one flank and 2 × 10^6 CHO-K1 cells in the opposite flank (n = 9). Body weight and tumor development were monitored every second day by caliper measurement. The respective tumor volume was calculated according to the following equation: tumor volume (mm^3) = d^2 × D/2 (where d is the shortest diameter and D the longest diameter). Animals were subjected to μPET imaging 10 days after inoculation, when tumors reached a volume of at least 300 mm^3. Tumor volume never exceeded 1 cm^3.
Xenograft-bearing CB17-SCID mice were anesthetized using isoflurane (2.5%) mixed with oxygen (1.5 L/min) to avoid movement during the imaging. Blocking agents (2 mg/kg BW FE@SUPPY or MRS1523) or the respective vehicle control (Tween-20/EtOH/0.9% physiological saline 1/9/90) was administered retroorbitally 2 min prior to the radiotracer administration (n = 3 per group). Subsequently, the animals received another retroorbital injection of 17.42 ± 4.5 MBq [^18F]FE@SUPPY into the venous plexus of the opposite eye. With a minor delay after the application of the radiotracer (2-3 min), mice were placed into the field of view of the scanner (μPET/CT Inveon, Siemens Medical Solution, Knoxville, USA), and dynamic imaging was performed for 60 min to follow tracer distribution. Vital parameters (respiration, body temperature) were continuously monitored using a dedicated monitoring unit (bioVet; m2m imaging, Cleveland, OH, USA) to ensure the depth of anesthesia and wellbeing of the animals.

Details of data set [8]: method as in PMID 25601336. The following applies: rats, after 60 min; cited from earlier work.
The subject of a further data set is rat A3AR. Also on record: method as in PMID 25242859. The following applies: cited from earlier work.
In data set [9] the test system is HT-29 cells. Also on record: method as in PMID 17488804. The following applies: hypoxic conditions, through A3AR stimulation; cited from earlier work.

Results on six compounds are retold here after PMC5830979, “Preclinical In Vitro and In Vivo Evaluation of [^18F]FE@SUPPY for Cancer PET Imaging: Limitations of a Xenograft Model for Colorectal Cancer” (Contrast Media & Molecular Imaging, 2018).

Like-named read-outs stand apart in the source and are kept apart here.

Chain of hA2AAR (P29274 whole entry): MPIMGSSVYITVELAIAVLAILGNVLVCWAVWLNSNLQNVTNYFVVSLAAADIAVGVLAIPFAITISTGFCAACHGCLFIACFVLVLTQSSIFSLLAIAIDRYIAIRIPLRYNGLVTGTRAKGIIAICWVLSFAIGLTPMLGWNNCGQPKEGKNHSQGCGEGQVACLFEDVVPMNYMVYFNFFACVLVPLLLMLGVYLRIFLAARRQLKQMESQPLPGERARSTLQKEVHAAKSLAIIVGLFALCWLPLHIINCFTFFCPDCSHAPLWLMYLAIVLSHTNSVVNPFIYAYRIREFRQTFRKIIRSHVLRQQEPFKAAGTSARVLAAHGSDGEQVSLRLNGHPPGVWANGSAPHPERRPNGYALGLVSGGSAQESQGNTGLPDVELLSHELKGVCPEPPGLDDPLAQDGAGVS
Experimental for hA1AR: (§2) The assay was performed according to the manufacturer's instructions in a final volume of 500 μL. Increasing concentrations of test compounds were added, whereby the concentration of dimethyl sulfoxide (DMSO) in final assay volume remained ≤10% (hA1AR and hA2AAR assay) and ≤1% in the hA3AR assay. Nonspecific binding was determined using 1 μM DPCPX (hA1R assay), 1 μM SCH-442,416 (hA2AR assay), or 10 μM I-AB-MECA (hA3AR assay). Filtration through GF/B filters (Whatman®, presoaked in 0.1% PEI or 0.5% BSA) was performed using a cell harvester (Brandel®), and receptor-bound radioactivity was determined via gamma counting (2480 Wizard^2, PerkinElmer) or liquid scintillation counting (Hidex 300 SL). IC50 fitted binding curves were generated using the GraphPad Software 5.0, and Ki values were calculated using the Cheng-Prusoff equation.
Experimental for hA2AAR: as §2
Experimental for hA3AR: as §2

As a reminder, the Ki is a dissociation constant, usually derived from enzyme kinetics or from competition with a known ligand. As to `CCSC(=O)c1c(CC)nc(-c2ccccc2)c(C(=O)O)c1CC` [DFE@SUPPY], the hA1/hA3AR selectivity ratio on hA1AR (ratio of Ki values) was determined as 324. Further, the inhibitory constant (Ki) at hA1AR came out at 5.46 ± 0.4 µM; at hA2AAR, 37.1 ± 16 µM; on hA3AR (n = 3–5 in triplicate) it was 2.58 ± 1.2 µM.
As to `CCSC(=O)c1c(CC)nc(-c2ccccc2)c(C(=O)OCCF)c1CC` [FE@SUPPY], the inhibitory constant (Ki) at hA1AR was 4.03 ± 1 µM; on hA2AAR, 1.72 ± 0.4 µM; at hA3AR (n = 3), 0.00602 ± 0.0004 µM.
Regarding `CNC(=O)[C@H]1O[C@@H](n2cnc3c(NCc4cccc(I)c4)ncnc32)[C@H](O)[C@@H]1O` [IB-MECA], the “effect on cell growth” value with HT-29 cells [1] is recorded as “growth promoting effect”. Besides, the effect on cells result in the data set on HCT-116 cells is reported as “causes cell apoptosis”.
As to `CCSC(=O)c1c(CC)nc(-c2ccccc2)c(C(=O)OCC[18F])c1CC` [[^18F]FE@SUPPY, 5-(2-[18F]fluoroethyl) 2,4-diethyl-3-(ethylsulfanylcarbonyl)-6-phenylpyridine-5-carboxylate], in data set [2], the “higher binding in colorectal carcinoma versus healthy colon tissue of the same patient” value was not below 2.3 fold. In [3], this compound returned an intact tracer of 92.6 ± 0.7%. The same compound returned an intact tracer in [4] of 66.9 ± 6.7%. Also, the intact tracer in data set [5] was determined as 31.4 ± 7.8%. For the same compound, in [6], the “intact tracer in blood (ex vivo)” value stood at 2.2 ± 0.4%. In addition, in data set [7], the “accumulation in bile fluid” value is reported as 162.78 ± 37.51 % ID/g, the accumulation in brain came out at 0.23 ± 0.03 % ID/g, the accumulation in heart is listed as 1.13 ± 0.04 % ID/g and the accumulation in kidneys is recorded as 2.67 ± 0.24 % ID/g. Further, in [7], the accumulation in liver stood at 14.57 ± 0.20 % ID/g, the accumulation in lung is reported as 1.50 ± 0.23 % ID/g, the accumulation in urine is reported as 43.33 ± 9.23 % ID/g and the “circulating radioactivity in blood” value was 1.6 ± 0.1 % ID/g. In the data set on HT-29 xenografts (CB17-SCID mice), the “SUV CHO-K1 xenograft tumor (hA3AR negative control)” value is 0.25 ± 0.33, the “SUV HT-29 xenograft tumor” value is reported as 0.23 ± 0.06, the SUV bile fluid is listed as 21.85 ± 10.63 and the SUV blood stood at 1.21 ± 0.11. The SUV urine in the data set with HT-29 xenografts (CB17-SCID mice) is listed as 8.86 ± 3.44. In addition, in the data set on HT-29 xenografts (xenograft-bearing CB17-SCID mice), the SUV liver came to 6.68 ± 0.80. In addition, the “intact tracer in plasma” value in [8] is reported as 25.8 ± 5.3%.
With `Nc1ncnc2c1ncn2[C@@H]1O[C@H](CO)[C@@H](O)[C@H]1O` [adenosine], the “affinity for the A3AR” value in the data set with rat A3AR is listed as ~ 1 µM.
On to `Cn1c(=O)c2c(ncn2C)n(C)c1=O` [caffeine], for which the “effect on HIF-1 protein and VEGF expression” value with HT-29 cells [9] is “leads to hypoxia-inducible factor-1 (HIF-1) protein accumulation and increased vascular endothelial growth factor (VEGF) expression”.
